Experiments:
[1] = target: T1, human adenosine A2a receptor (Homo sapiens, UniProt P29274); experiment: Human adenosine A2a receptor radioligand binding assay ([125I]-AB-MECA, CHO cell membranes); conditions: for Ki: recombinant human A2a receptor expressed in CHO cells, Ki from IC50 by Cheng-Prussoff equation, read-out: hA2a Ki; for Selectivity A1/A2a: ratio obtained by dividing KiHA1 by KiHA2A
T1 construct: expressed in transfected cells; host or cells: CHO cells, semliki forest virus expression system; membrane preparation
T1 sequence (P29274 whole entry): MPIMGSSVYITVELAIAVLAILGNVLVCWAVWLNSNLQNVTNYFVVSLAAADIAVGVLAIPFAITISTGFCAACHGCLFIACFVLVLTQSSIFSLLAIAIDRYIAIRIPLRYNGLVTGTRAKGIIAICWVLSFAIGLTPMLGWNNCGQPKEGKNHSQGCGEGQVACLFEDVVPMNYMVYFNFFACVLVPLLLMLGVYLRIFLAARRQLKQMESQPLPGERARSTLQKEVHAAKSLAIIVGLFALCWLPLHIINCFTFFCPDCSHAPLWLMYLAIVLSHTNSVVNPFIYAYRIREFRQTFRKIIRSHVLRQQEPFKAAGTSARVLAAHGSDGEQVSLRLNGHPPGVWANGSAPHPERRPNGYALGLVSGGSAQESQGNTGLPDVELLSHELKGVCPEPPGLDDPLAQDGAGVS
Method: Human Adenosine A2a Receptor
The gene encoding human adenosine A2a receptor was recombinantly introduced and expressed in chinese hamster ovary (CHO) cells using the semliki forest virus expression system. Cells were harvested, washed twice by centrifugation, homogenized and again washed by centrifugation. The final washed membrane pellet was suspended in a Tris (50 mM) buffer containing 120 mM NaCl, 5 mM KCl, 2 mM CaCl2 and 10 mM MgCl2 (pH 7.4) (buffer A). The [^125I]-AB-MECA ([N(6)-(4-amino-3-iodobenzyl)-5′-N-methylcarbamoyl-adenosine]; 0.05 nM) binding assay was carried out in 96-well a plates in the presence of 20 μg of membrane protein and 0.1 U adenosine deaminase in a final volume of […] of buffer A. Non-specific binding was defined using xanthine amine congener (XAC; 2 μM). Compounds were tested at 10 concentrations from 10 μM-0.3 nM. All assays were conducted in duplicate and repeated at least two times. Assay plates were incubated for 1 hour at room temperature before filtration through Whatman Unifilter GF/C 96-well filter plates (preincubated with 0.3% polyethyleneimine). Filters were washed 3 times with 0.3 ml of cold (4° C.) Tris (50 mM)—NaC […]
[…] 1 (120 mM) buffer (pH 7.4). Microscint 40 scintillation fluid (50 μl) was added to each well and the wells sealed. After gentle shaking for 20 min, plates were counted on a Packard Topcount scintillation counter. IC50 values were calculated using a non-linear curve fitting program and Ki values calculated using the Cheng-Prussoff equation.
(§1) In accordance with the invention, it has been shown that compounds of formula I have a high affinity toward the A2A receptor. In Table I below specific values of prepared compounds are described, Values of KiHA2A and KiHA1 are shown in Table I for compounds of formula 1. A low Ki value is indicative of a particular compound's high affinity toward a particular receptor and conversely a higher Ki value is indicative of a lower affinity for that compound toward a particular receptor. […] Generally speaking, compounds that have a higher HA1/HA2A ratio are able to give a substantially complete blockade of the HA2A receptor without substantially affecting the A1 receptor.

[2] = target: T2, human adenosine A1 receptor (Homo sapiens, UniProt P30542); experiment: Human adenosine A1 receptor radioligand binding assay ([3H]-DPCPX, SPA, CHO cell membranes); conditions: recombinant human A1 receptor expressed in CHO cells; [3H]-DPCPX 0.6 nM; Ki from IC50 by Cheng-Prussoff equation; read-out: hA1 Ki
T2 construct: expressed in transfected cells; host or cells: CHO cells, semliki forest virus expression system; membrane preparation
T2 sequence (P30542 1-326): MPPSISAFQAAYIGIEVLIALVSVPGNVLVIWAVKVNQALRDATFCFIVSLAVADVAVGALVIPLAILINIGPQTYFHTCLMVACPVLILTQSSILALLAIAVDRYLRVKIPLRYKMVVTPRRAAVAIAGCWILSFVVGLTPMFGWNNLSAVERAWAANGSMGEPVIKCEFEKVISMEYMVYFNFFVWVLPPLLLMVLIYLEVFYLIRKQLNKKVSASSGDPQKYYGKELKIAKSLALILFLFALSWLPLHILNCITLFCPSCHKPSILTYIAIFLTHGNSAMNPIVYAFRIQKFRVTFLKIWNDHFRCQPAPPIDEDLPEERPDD
Method: Human Adenosine A^1 Receptor
The gene encoding human adenosinie A1 receptor was recombinantly introduced and expressed in chinese hamster ovary (CHO) cells using the semliki forest virus expression system. Cells were harvested, washed twice by centrifugation, homogenized and again washed by centrifugation. The final washed membrane pellet was suspended in a Tris (50 mM) buffer containing 120 mM NaCl, 5 mM KCl, 2 mM CaCl2 and 10 mM MgCl2 (pH 7.4) (buffer A). The [^3H]-DPCPX (([propyl-3H]8-cyclopentyl-1,3-dipropyxanthine); 0.6 nM) binding assay was carried out in 96-well plates in the presence of 2.5 μg of membrane protein, 0.5 mg of Ysi-poly-1-lysine SPA beads and 0.1 U adenosine deaminase in a final volume of 200 μl of buffer A. Non-specific binding was defined using xanthine amine congener (XAC; 2 μM). Compounds were tested at 10 concentrations from 10 μM-0.3 nM. All assays were conducted in duplicate and repeated at least two times. Assay plates were incubated for 1 hour at room temperature before centrifugation and then bound ligand determined using a Packard Topcount scintillation counter. IC50 values were calculated using a non-linear curve fitting program and Ki values calculated using the Cheng-Prussoff equation.
as §1

Molecule: 5-Methyl-thiophene-2-carboxylic acid[8-methoxy-5-(4-vinyl-phenyl)-[1,2,4]triazolo[1,5-a]pyridin-2-yl]-amide [Example 44]
- Ki [1]: 246 nM

Molecule: COc1ccc(-c2cccs2)n2nc(NC(=O)c3ccc(Br)cc3)nc12 [Example 2, 4-Bromo-N-(8-methoxy-5-thiophen-2-yl-[1,2,4]triazolo[1,5-a]pyridin-2-yl)-benzamide]
- Ki [2]: 2390 nM
- Selectivity A1/A2a [1]: 37.6
- Ki [1]: 63.6 nM

Molecule: COc1ccc(-c2ccccc2)n2nc(NC(=O)c3cccc(F)c3)nc12 [Example 3, 3-Fluoro-N-(8-methoxy-5-phenyl-[1,2,4]triazolo[1,5-a]pyridin-2-yl)-benzamide]
- Ki [2]: 2030 nM
- Selectivity A1/A2a [1]: 11.6
- Ki [1]: 176 nM

Molecule: COc1ccc(-c2ccccc2)n2nc(NC(=O)c3ccc(F)cc3)nc12 [Example 4, 4-Fluoro-N-(8-methoxy-5-phenyl-[1,2,4]triazolo[1,5-a]pyridin-2-yl)-benzamide]
- Ki [2]: 2240 nM
- Selectivity A1/A2a [1]: 19.6
- Ki [1]: 114 nM

Molecule: COc1ccc(-c2ccccc2)n2nc(NC(=O)c3ccccc3Cl)nc12 [Example 5, 2-Chloro-N-(8-methoxy-5-phenyl-[1,2,4]triazolo[1,5-a]pyridin-2-yl)-benzamide]
- Ki [2]: 1870 nM
- Selectivity A1/A2a [1]: 7.3
- Ki [1]: 258 nM

Molecule: COc1ccc(-c2ccccc2)n2nc(NC(=O)c3cccc(Cl)c3)nc12 [Example 6, 3-Chloro-N-(8-methoxy-5-phenyl-[1,2,4]triazolo[1,5-a]pyridin-2-yl)-benzamide]
- Ki [2]: 2870 nM
- Selectivity A1/A2a [1]: 15.8
- Ki [1]: 181 nM

Molecule: COc1ccc(C(=O)Nc2nc3c(OC)ccc(-c4ccccc4)n3n2)cc1 [Example 7, 4-Methoxy-N-(8-methoxy-5-phenyl-[1,2,4]triazolo[1,5-a]pyridin-2-yl)-benzamide]
- Ki [2]: 4710 nM
- Selectivity A1/A2a [1]: 20.8
- Ki [1]: 227 nM

Molecule: COc1ccc(-c2ccccc2)n2nc(NC(=O)c3cccc(Br)c3)nc12 [Example 8, 3-Bromo-N-(8-methoxy-5-phenyl-[1,2,4]triazolo[1,5-a]pyridin-2-yl)-benzamide]
- Ki [2]: 2880 nM
- Selectivity A1/A2a [1]: 21.1
- Ki [1]: 136 nM

Molecule: COc1ccc(-c2ccccc2)n2nc(NC(=O)c3ccccc3F)nc12 [Example 21, 2-Fluoro-N-(8-methoxy-5-phenyl-[1,2,4]triazolo[1,5-a]pyridin-2-yl)-benzamide]
- Ki [1]: 384 nM

Molecule: COc1ccc(-c2ccccc2)n2nc(NC(=O)c3ccccc3Br)nc12 [Example 22, 2-Bromo-N-(8-methoxy-5-phenyl-[1,2,4]triazolo[1,5-a]pyridin-2-yl)-benzamide]
- Ki [1]: 266 nM

Molecule: COc1ccc(-c2ccccc2Cl)n2nc(NC(=O)c3ccc(C)s3)nc12 [Example 36, 5-Methyl-thiophene-2-carboxylic acid [5-(2-chloro-phenyl)-8-methoxy-[1,2,4]triazolo[1,5-a]pyridin-2-yl]-amide]
- Ki [1]: 527 nM

Molecule: COc1ccc(-c2ccccc2C)n2nc(NC(=O)c3ccc(C)s3)nc12 [Example 37, 5-Methyl-thiophene-2-carboxylic acid (8-methoxy-5-o-tolyl-[1,2,4]triazolo[1,5-a]pyridin-2-yl)-amide]
- Ki [1]: 938 nM

Molecule: COc1ccc(-c2cccc(C)c2)n2nc(NC(=O)c3ccc(C)s3)nc12 [Example 38, 5-Methyl-thiophene-2-carboxylic acid (8-methoxy-5-m-tolyl [1,2,4]triazolo[1,5-a]pyridin-2-yl)-amide]
- Ki [1]: 277 nM

Molecule: COc1ccc(-c2ccc(C)cc2)n2nc(NC(=O)c3ccc(C)s3)nc12 [Example 39, 5-Methyl-thiophene-2-carboxylic acid (8-methoxy-5-p-tolyl-[1,2,4]triazolo[1,5-a]pyridin-2-yl)-amide]
- Ki [1]: 451 nM

Molecule: COc1ccc(-c2cccc(C(F)(F)F)c2)n2nc(NC(=O)c3ccc(C)s3)nc12 [Example 40, 5-Methyl-thiophene-2-carboxylic acid [8-methoxy-5-(3-trifluoromethyl-phenyl)-[1,2,4]triazolo[1,5-a]pyridin-2-yl]-amide]
- Ki [1]: 547 nM

Molecule: COc1ccc(-c2cccc(NC(C)=O)c2)n2nc(NC(=O)c3ccc(C)s3)nc12 [Example 41, 5-Methyl-thiophene-2-carboxylic acid [5-(3-acetylamino-phenyl)-8-methoxy-[1,2,4]triazolo[1,5-a]pyridin-2-yl]-amide]
- Ki [1]: 254 nM

Molecule: COc1ccc(-c2ccc(SC)cc2)n2nc(NC(=O)c3ccc(C)s3)nc12 [Example 42, 5-Methyl-thiophene-2-carboxylic acid [8-methoxy-5-(4-methylsulfanyl-phenyl)-[1,2,4]triazolo[1,5-a]pyridin-2-yl]-amide]
- Ki [1]: 287 nM

Molecule: COc1ccc(-c2cccc(C(C)=O)c2)n2nc(NC(=O)c3ccc(C)s3)nc12 [Example 43, 5-Methyl-thiophene-2-carboxylic acid [5-(3-acetyl-phenyl)-8-methoxy-[1,2,4]triazolo[1,5-a]pyridin-2-yl]-amide]
- Ki [1]: 618 nM

Molecule: COc1ccc(-c2ccc3[nH]ccc3c2)n2nc(NC(=O)c3ccc(C)s3)nc12 [Example 45, 5-Methyl-thiophene-2-carboxylic acid [5-(1H-indol-5-yl)-8-methoxy-[1,2,4]triazolo[1,5-a]pyridin-2-yl]-amide]
- Ki [1]: 852 nM

Molecule: CCOC(=O)c1cccc(-c2ccc(OC)c3nc(NC(=O)c4ccc(C)s4)nn23)c1 [Example 46, 3-{8-Methoxy-2-[(5-methyl-thiophene-2-carbonyl)-amino]-[1,2,4]triazolo[1,5-a]pyridin-5-yl}-benzoic acid ethyl ester]
- Ki [1]: 332 nM

Molecule: COc1ccc(-c2cccc(Cl)c2)n2nc(NC(=O)c3ccc(F)cc3)nc12 [Example 47, N-[5-(3-Chloro-phenyl)-8-methoxy-[1,2,4]triazolo[1,5-a]pyridin-2-yl]-4-fluoro-benzamide]
- Ki [1]: 269 nM

Molecule: COc1ccc(-c2ccc(Cl)cc2)n2nc(NC(=O)c3ccc(F)cc3)nc12 [Example 48, N-[5-(4-Chloro-phenyl)-8-methoxy-[1,2,4]triazolo[1,5-a]pyridin-2-yl]-4-fluoro-benzamide]
- Ki [1]: 624 nM

Molecule: COc1ccc(-c2ccc(OC)c3nc(NC(=O)c4ccc(F)cc4)nn23)cc1 [Example 49, 4-Fluoro-N-[8-methoxy-5-(4-methoxy-phenyl)-[1,2,4]triazolo[1,5-a]pyridin-2-yl]-benzamide]
- Ki [1]: 346 nM

Molecule: COc1ccc(-c2ccc(SC)cc2)n2nc(NC(=O)c3ccc(F)cc3)nc12 [Example 50, 4-Fluoro-N-[8-methoxy-5-(4-methylsulfanyl-phenyl)-[1,2,4]triazolo[1,5-a]pyridin-2-yl]-benzamide]
- Ki [1]: 855 nM

Molecule: CCOC(=O)c1cccc(-c2ccc(OC)c3nc(NC(=O)c4ccc(F)cc4)nn23)c1 [Example 51, 3-[2-(4-Fluoro-benzoylamino)-8-methoxy-[1,2,4]triazolo[1,5-a]pyridin-5-yl]-benzoic acid ethyl ester]
- Ki [1]: 480 nM
